In patent publication US20250041195A1, “COLLAGEN TYPE III COMPOSITION PREPARED FROM FIBROBLAST EXTRACELLULAR MATRIX” (SINO UNITED (BEIJING) BIOMEDICAL TECHNOLOGY CO., LTD., priority 2022, published 2025):
Where a SMILES comes first, the peptide text is derived from it.

Columns and labels:
[1] = system: human fibroblasts; assay type: cell-based; conditions: 48 h, 200 μg/mL
Protocol: The active polypeptide of the present application with a sequence of EMHKMEPCPMYRRHLG was serially diluted in a 96-well cell culture plate to 5, 10, 25, 50, 100, 200 μg/mL, with 5 duplicated wells per concentration. The above operations were all performed under sterile conditions.
For the passage of the cell lines isolated in Example 1, the cell culture medium was firstly poured out, and the cells were washed twice with 2 mL of PBS. The liquid was discarded, and 1 mL of 0.25% (mass fraction) trypsin solution was added for digestion for 3 min until the cells were completely detached. […] The cell solution was adjusted to a concentration of 5.0×10^5 cells/mL and cultured at 37° C. under 5% carbon dioxide and saturated humidity conditions. After 24 h of passaging, the cells were used for pharmacological activity assay. The above operations were all performed under sterile conditions.
The cells were inoculated into a 96-well cell culture plate, with 100 μL per well, and incubated at 37° C. under 5% carbon dioxide and saturated humidity conditions. […] The absorbance was determined at 570 nm by a microplate reader, with 630 nm as a reference wavelength. The results were recorded and the cell viability was calculated according to the following formula: cell viability=(absorbance A570 of the experimental group/absorbance A570 of the blank control group)×100%.

[2] = system: mice; experiment: General chronic toxicology study in mice; assay type: in vivo; conditions: duration ≥6 months, ICH S4 guidelines
Text: The Fmoc polypeptide synthesis method is a conventional method used by a person skilled in the art to prepare a polypeptide. In the case that a person skilled in the art knows that the polypeptide to be prepared needs to comprise an amino acid sequence as shown in EMHKMEPCPMYRRHLG, in combination with the existing Fmoc polypeptide synthesis method, the polypeptide to be protected in the present application may be obtained.

## CSCC[C@H](NC(=O)[C@H](CCCCN)NC(=O)[C@H](Cc1c[nH]cn1)NC(=O)[C@H](CCSC)NC(=O)[C@@H](N)CCC(=O)O)C(=O)N[C@@H](CCC(=O)O)C(=O)N1CCC[C@H]1C(=O)N[C@@H](CS)C(=O)N1CCC[C@H]1C(=O)N[C@@H](CCSC)C(=O)N[C@@H](Cc1ccc(O)cc1)C(=O)N[C@@H](CCCNC(=N)N)C(=O)N[C@@H](CCCNC(=N)N)C(=O)N[C@@H](Cc1c[nH]cn1)C(=O)N[C@@H](CC(C)C)C(=O)NCC(=O)O [active polypeptide, EMHKMEPCPMYRRHLG] (H-EMHKMEPCPMYRRHLG-OH)
[1]
  cell viability: 265.3%±4.52
[2]
  toxic side effects in general chronic toxicology study: no significant toxic side effects
